From EP2440179B1, “CHITOSAN OLIGOSACCHARIDE-BASED COMPOSITIONS” (Teslenko, Alexander, priority 2009, dated 2010)

Legend:
[1] = format: in vitro ADME, Schwein; details: mean of 4 treated pig skins, after 2 Stunden Applikation
Description: Schweineohren wurden ohne Hautverletzungen sofort nach der Schlachtung aus einem Schlachthof abgeholt. Die Ohren wurden gründlich mit milder Seife abgewaschen. Unmittelbar danach wurde die subkutane Fettschicht mit dem Skalpell abgetrennt. Die Haut wurde in einem Container bei -20°C für weitere Untersuchungen aufbewahrt. Die Trennung der Epidermis von der Dermis erfolgte vorsichtig nach Erwärmung bei 60°C (1 Minute).
Die Eindringtiefe von COS-Salicylat wurde im Rahmen eines Schälverfahrens an einer Modellhaut bestimmt. Die 10%-ige COS-Salicylat-Lösung wurde auf die Hautoberfläche der Ohren aufgetragen und etwa 1 bis 2 Minuten in die Haut einmassiert. Währenddessen wurden die Ohren bei 35 °C temperiert.
Für die Schälung wurden 15 Tesafilmstreifen (Typ Tesa® Office, Beiersdorf, DE) auf eine Größe von 1,5 cm * 1,5 cm geschnitten und ausgewogen. Die auf dem Schweineohr ausgewählten Untersuchungsfelder von 2 cm * 2 cm wurden nacheinander mit den vorbereiteten Tesafilm-Streifen beklebt und danach abgezogen.
Die Streifen wurden mit Acetonitril bei 60°C im Laufe von 60 Minuten extrahiert. Die Lösungen wurden durch 0,5 µm-Membranen filtriert und mit Hilfe von HPLC analysiert.
Das Shimadzu LC-20A HPLC-System bestand aus einer Spherisorb S5 ODS2-Säule (Waters Co) und UV-Detektor. Mobile Phase war Wasser-Methanol-Acetonitril-Essigsaure. Tabelle 2: Mittelwerte der Wiederfindung aus 4 behandelten Schweinehäuten des COS-Salicylat (aus Beispiel 1) und Salicylsäure in einzelnen Hautschichten nach 2 Stunden Applikation.
Der Gehalt von COS-Salicylat in Epidermis und Dermis wurde mit Hilfe einer Franz-Zelle bestimmt.

Walker-Carciosarcom [2] = test: Photodynamic therapy in tumour-bearing rats: malondialdehyde in tumour homogenate (2-thiobarbituric acid); format: in vivo, Ratten; details: marker of oxidative stress
Description: Der Nachweis der therapeutischen Wirkung von COS-ALA-Addukten erfolgte an insgesamt 60 Ratten mit einem Walker-Carciosarcom (30 Verum- und 30 Kontrolltiere). Die Tumore […] worden, die photodynamische Therapie mit COS-ALA wurde durchgeführt, wenn die Tumoren eine Große von 1 cm^3 erreicht hatten. Zur Behandlung […], Frankfurt/M.) mit monochromatischem […] λ = 634 nm. Die Bestrahlungsdosis betrug 37 J/cm^2, die […]. […] Dazu wurden die Tiere getötet, die Tumore […] und deren Gewicht und […] histologische Untersuchungen wurde Gewebe in 10 %iger Formalinlösung fixiert. Zur Bestimung des oxidativen Stress in den Tumorhomogenisaten diente der Gehalt an Malondialdehyd, der mit Hilfe der 2-Thiobarbitursäure bestimmt wurde.

Walker-Carciosarcom [3] = test: Photodynamic therapy in tumour-bearing rats: histological/cytological examination of tumour necrosis; format: in vivo, Ratten
Description: Der Nachweis der therapeutischen Wirkung von COS-ALA-Addukten erfolgte an insgesamt 60 Ratten mit einem Walker-Carciosarcom (30 Verum- und 30 Kontrolltiere). Die Tumore waren den Tieren implantiert worden, die photodynamische Therapie mit COS-ALA wurde durchgeführt, wenn die Tumoren eine Große von 1 cm^3 erreicht hatten.
Zur Behandlung diente eine Lampe "[sequence]" (Galdena AG, Frankfurt/M.) mit monochromatischem Licht der Wellenlänge λ = 634 nm. Die Bestrahlungsdosis betrug 37 J/cm^2, die mittlere Energie 8,5 W. Die behandelten Gruppen bestanden aus jeweils 6 Tieren, die nach 1, 2, 3, 5, 6 und 24 Stunden sowie 2 Wochen untersucht wurden. Dazu wurden die Tiere getötet, die Tumore exstirpiert und deren Gewicht und Größe gemessen. Für histologische Untersuchungen wurde Gewebe in 10 %iger Formalinlösung fixiert.

Molecule | Wiederfindung, Verteilung in Dermis [1] | Wiederfindung, Verteilung in Epidermis [1] | Wiederfindung, Verteilung in Hornschicht [1] | Malondialdehyd (Walker-Carciosarcom [2]; Zeit nach PDT 1 h) | Malondialdehyd (Walker-Carciosarcom [2]; Zeit nach PDT 2 h) | Malondialdehyd (Walker-Carciosarcom [2]; Zeit nach PDT 3 h) | Malondialdehyd (Walker-Carciosarcom [2]; Zeit nach PDT 5 h) | Malondialdehyd (Walker-Carciosarcom [2]; Zeit nach PDT 6 h) | Malondialdehyd (Walker-Carciosarcom [2]; Zeit nach PDT 24 h) | Nekrose in der Mitte des Tumorgewebes zu sehen nach (Walker-Carciosarcom [3]; time until necrosis is seen) [Stunden] | Nekrose verbreitet sich auf das ganze Tumorgewebe nach (Walker-Carciosarcom [3]; time until necrosis of the whole tumour) [Wochen]
O=C(O)c1ccccc1O [Salicylsäure] | 1,0 ± 0,15 µg/cm^2 | 2,1 ± 0,2 µg/cm^2 | 5,3 ± 0,4 µg/cm^2 |  |  |  |  |  |  |  | 
5-Aminolävulinsäure [ALA] |  |  |  | 0,25 nmol/mL | 0,42 nmol/mL | 0,47 nmol/mL | 0,55 nmol/mL | 0,61 nmol/mL | 0,75 nmol/mL | 72 | 2
